The text below walks through data of US10292968B2, “Substituted heterocycles as bromodomain inhibitors” (Zenith Epigenetics Ltd., priority 2014, dated 2019).

Molecules are shown by their SMILES. Where a name gives a salt, the structure may show the parent alone.

Experiment [1] deals with T1, Brd4 bromodomain 1 (BRD4(1)) (Homo sapiens, UniProt O60885).
T1 construct: N-terminally His-tagged bromodomains (BRD4(1) at 20 nM and BRD4(2) at 100 nM); made in house; host or cells: E. coli BL21(DE3)
The experiment is described as follows: AlphaScreen inhibition of tetra-acetylated histone H4 binding to BRD4(1). The following applies: BRD4(1) at 20 nM, tetra-acetylated histone H4 peptide, 30 min incubation; for IC50: read-out: Alpha Screen BRD4(1). On the procedure: (§1) Proteins were cloned and overexpressed with a N-terminal 6×His tag, then purified by nickel affinity followed by size exclusion chromatography. Briefly, E. coli BL21(DE3) cells were transformed with a recombinant expression vector encoding N-terminally Nickel affinity tagged bromodomains from Brd2, Brd3, Brd4. Cell cultures were incubated at 37° C. with shaking to the appropriate density and induced overnight with IPTG. The supernatant of lysed cells was loaded onto Ni-IDA column for purification. Eluted protein was pooled, concentrated and further purified by size exclusion chromatography. Fractions representing monomeric protein were pooled, concentrated, aliquoted, and frozen at −80° C. for use in subsequent experiments.
(§2) Binding of tetra-acetylated histone H4 peptide (Millipore) and BET bromodomains was confirmed by Amplified Luminescent Proximity Homogenous Assay (AlphaScreen). N-terminally His-tagged bromodomains (BRD4(1) at 20 nM and BRD4(2) at 100 nM) and biotinylated tetra-acetylated histone H4 (10-25 nM) were incubated in the presence of nickel chelate acceptor beads and streptavidin donor beads (PerkinAlmer, 6760000K) added to a final concentration of 2 μg/ml under green light in a white 96 well microtiter plate (Greiner). For inhibition assays, serially diluted compounds were added to the reaction mixtures in a 0.1% final concentrations of DMSO. Final buffer concentrations were 50 mM HEPES, 100 mM NaCl and 0.1% BSA buffer, pH 7.4 and optimized to 30 min incubation time. Assay plates were read at 570 nm on a Synergy H4 Plate Reader (Biotek). IC50 values were determined from a dose response curve.
Background: Bead proximity is the source of the signal in Alpha formats.

Experiment [2] concerns the target T2, Brd 4 bromodomain 2 (BRD4(2)) (Homo sapiens, UniProt O60885).
T2 construct: N-terminally His-tagged bromodomains (BRD4(1) at 20 nM and BRD4(2) at 100 nM); made in house; host or cells: E. coli BL21(DE3)
The experiment is described as follows: AlphaScreen inhibition of tetra-acetylated histone H4 binding to BRD4(2). The following applies: BRD4(2) at 100 nM, tetra-acetylated histone H4 peptide, 30 min incubation; for IC50: read-out: Alpha Screen BRD4(2). The procedure: as §1, §2

The next experiment has as its system MV4-11 cells. The experiment is described as follows: Inhibition of cell proliferation in MV4-11 cells (Cell Titer Aqueous One). The class given is cell-based. Particulars: Human AML MV-4-11 cells, 72 h. On the procedure:
MV4-11 cells (CRL-9591) were plated at a density of 5×10^4 cells per well in 96 well flat bottom plates and treated with increasing concentrations of test compound or DMSO (0.1%) in IMDM media containing 10% FBS and penicillin/streptomycin. Triplicate wells were used for each concentration and a well containing only media was used as a control. Plates were incubated at 37° C., 5% CO2 for 72 h before adding 20 μL of the Cell Titer Aqueous One Solution (Promega) to each well and incubated at 37° C., 5% CO2 for an additional 3-4 h. The absorbance was read at 490 nm in a spectrophotometer and the percentage of cell titer relative to DMSO-treated cells was calculated after correcting for background by subtracting the blank well's signal. IC50 values were calculated using the GraphPad Prism software.

The test system of another experiment is cMYC. In words: Inhibition of cMYC expression (mRNA, real-time PCR) in MV4-11 cells. The class given is cell-based. Particulars: Human AML MV4-11 cells, 3 h; for IC50: read-out: c-myc activity. The procedure:
MV4-11 cells (CRL-9591) were plated at a density of 2.5×10^4 cells per well in 96 well U-bottom plates and treated with increasing concentrations of test compound or DMSO (0.1%) in IMDM media containing 10% FBS and penicillin/streptomycin, and incubated for 3 h at 37° C. Triplicate wells were used for each concentration. Cells were pelleted by centrifugation and harvested using the mRNA Catcher PLUS kit according to manufacturer's instructions. The eluted mRNA isolated was then used in a one-step quantitative real-time PCR reaction, using components of the RNA UltraSense™ One-Step Kit (Life Technologies) together with Applied Biosystems TaqMan® primer-probes for cMYC and Cyclophilin. Real-time PCR plates were run on a ViiA™7 real time PCR machine (Applied Biosystems), data was analyzed, normalizing the Ct values for cMYC to an internal control, prior to determining the fold expression of each sample, relative to the control.
On the technique in general: Real-time PCR tracks product formation cycle by cycle.

On to `CC(=O)c1cncc(-c2[nH]c(-c3ccccc3)nc2-c2n[nH]c(=O)n2C2CC2)c1` [Example 12, 3-(5-(5-acetylpyridin-3-yl)-2-phenyl-1H-imidazol-4-yl)-4-cyclopropyl-1H-1,2,4-triazol-5(4H)-one formate], for which the IC50 in experiment [1] is 3 to 30 µM; in experiment [2] it was 0.3 to 3 µM.

In the case of `Cc1n[nH]c2ccc(-c3[nH]c(-c4ccccc4)nc3-c3n[nH]c(=O)n3C3CC3)cc12` [Example 13, 4-cyclopropyl-3-(5-(3-methyl-1H-indazol-5-yl)-2-phenyl-1H-imidazol-4-yl)-1H-1,2,4-triazol-5(4H)-one hydrochloride], the IC50 was in the range of 3 to 30 µM with MV4-11 cells (MV4-11), 0.3 to 3 µM in experiment [1], 3 to 30 µM in the experiment on cMYC and 0.3 to 3 µM in experiment [2].

For `COC(=O)c1ccc(C)c(-c2[nH]c(-c3ccccc3)nc2-c2n[nH]c(=O)n2C2CC2)c1` [Example 2, methyl 3-(4-(4-cyclopropyl-5-oxo-4,5-dihydro-1H-1,2,4-triazol-3-yl)-2-phenyl-1H-imidazol-5-yl)-4-methyl benzoate hydrochloride], the “Cell Proliferation activity” value in the experiment with MV4-11 cells is “Not Active”. Also, the IC50 in experiment [1] and in experiment [2] was 3 to 30 µM throughout. The c-myc activity result with cMYC is recorded as “Not Active”.

On to `Cn1ncc2ccc(-c3[nH]c(-c4ccccc4)nc3-c3n[nH]c(=O)n3CC3CC3)cc21` [Example 17, 4-(cyclopropylmethyl)-3-(5-(1-methyl-1H-indazol-6-yl)-2-phenyl-1H-imidazol-4-yl)-1H-1,2,4-triazol-5(4H)-one], for which the “Alpha Screen BRD4(1)” value in experiment [1] is “Not Active”. Moreover, the “Alpha Screen BRD4(2)” value in experiment [2] is “Not Active”.

As to `Cn1ncc2ccc(-c3[nH]c(-c4ccncc4)nc3-c3n[nH]c(=O)n3C3CC3)cc21` [Example 23, 4-cyclopropyl-3-(5-(1-methyl-1H-indazol-6-yl)-2-(pyridin-4-yl)-1H-imidazol-4-yl)-1H-1,2,4-triazol-5(4H)-one dihydrochloride], the results for the IC50 in experiment [1] and in experiment [2] were at most 0.3 µM and 3 to 30 µM, respectively.

With `Cn1ncc2ccc(-c3[nH]c(-c4cn[nH]c4)nc3-c3n[nH]c(=O)n3C3CC3)cc21` [Example 26, 4-cyclopropyl-3-(5-(1-methyl-1H-indazol-6-yl)-2-(1H-pyrazol-4-yl)-1H-imidazol-4-yl)-1H-1,2,4-triazol-5(4H)-one hydrochloride], the IC50 in experiment [1] and in experiment [2] was 3 to 30 µM throughout.

In the case of `CC(=O)c1ccc(C)c(-c2[nH]c(-c3ccccc3)nc2-c2n[nH]c(=O)n2C2CC2)c1` [Example 11, 3-(5-(5-acetyl-2-methylphenyl)-2-phenyl-1H-imidazol-4-yl)-4-cyclopropyl-1H-1,2,4-triazol-5(4H)-one hydrochloride], the IC50 in experiment [1] was 3 to 30 µM. Also, the “Alpha Screen BRD4(2)” value in experiment [2] was “Not Active”.

For the compound `CC(C)Cn1c(-c2nc(-c3ccccc3)[nH]c2-c2ccc3cnn(C)c3c2)n[nH]c1=O` [Example 18, 4-isobutyl-3-(5-(1-methyl-1H-indazol-6-yl)-2-phenyl-1H-imidazol-4-yl)-1H-1,2,4-triazol-5(4H)-one], the IC50 was in the range of 0.3 to 3 µM in experiment [1] and 3 to 30 µM in experiment [2]. Besides, the c-myc activity entry in the experiment on cMYC is reported as “Not Active”.

Regarding `Cn1cc(-c2nc(-c3n[nH]c(=O)n3C3CC3)c(-c3ccc4cnn(C)c4c3)[nH]2)cn1` [Example 25, 4-cyclopropyl-3-(5-(1-methyl-1H-indazol-6-yl)-2-(1-methyl-1H-pyrazol-4-yl)-1H-imidazol-4-yl)-1H-1,2,4-triazol-5(4H)-one hydrochloride], the values for the IC50 in experiment [1] and in experiment [2] were 0.3 to 3 µM and 3 to 30 µM, respectively.

Regarding `O=C1CCc2ccc(-c3[nH]c(-c4ccccc4)nc3-c3n[nH]c(=O)n3C3CC3)cc21` [Example 5, 4-cyclopropyl-3-(5-(3-oxo-2,3-dihydro-1H-inden-5-yl)-2-phenyl-1H-imidazol-4-yl)-1H-1,2,4-triazol-5(4H)-one hydrochloride], the “Alpha Screen BRD4(1)” value in experiment [1] is given as “Not Active”. In addition, in experiment [2], the “Alpha Screen BRD4(2)” value is listed as “Not Active”.

As for `Cn1ncc2ccc(-c3[nH]c(-c4ccccc4)nc3-c3n[nH]c(=O)n3CC(C)(C)C)cc21` [Example 20, 3-(5-(1-methyl-1H-indazol-6-yl)-2-phenyl-1H-imidazol-4-yl)-4-neopentyl-1H-1,2,4-triazol-5(4H)-one], the IC50 in experiment [1] lay within 0.3 to 3 µM; in experiment [2], 3 to 30 µM.

Turning to `Cc1nn(C)c2ccc(-c3[nH]c(-c4ccccc4)nc3-c3n[nH]c(=O)n3C3CC3)cc12` [Example 15, 4-cyclopropyl-3-(5-(1,3-dimethyl-1H-indazol-5-yl)-2-phenyl-1H-imidazol-4-yl)-1H-1,2,4-triazol-5(4H)-one hydrochloride], the IC50 in experiment [1] fell in the range of 0.3 to 3 µM; in experiment [2], 3 to 30 µM.

Take `Cn1ncc2ccc(-c3[nH]c(-c4cccnc4)nc3-c3n[nH]c(=O)n3C3CC3)cc21` [Example 24, 4-cyclopropyl-3-(5-(1-methyl-1H-indazol-6-yl)-2-(pyridin-3-yl)-1H-imidazol-4-yl)-1H-1,2,4-triazol-5(4H)-one dihydrochloride]: the IC50 in experiment [1] and in experiment [2] was 3 to 30 µM in each case.

In the case of `CC(C)n1c(-c2nc(-c3ccccc3)[nH]c2-c2ccc3cnn(C)c3c2)n[nH]c1=O` [Example 22, 4-isopropyl-3-(5-(1-methyl-1H-indazol-6-yl)-2-phenyl-1H-imidazol-4-yl)-1H-1,2,4-triazol-5(4H)-one], the IC50 in experiment [1] and in experiment [2] was 3 to 30 µM each time.

Consider `Cc1noc2ccc(-c3[nH]c(-c4ccccc4)nc3-c3n[nH]c(=O)n3C3CC3)cc12` [Example 16, 4-cyclopropyl-3-(5-(3-methylbenzo[d]isoxazol-5-yl)-2-phenyl-1H-imidazol-4-yl)-1H-1,2,4-triazol-5(4H)-one], for which the figures for the IC50 in experiment [1] and in experiment [2] were at most 0.3 µM and 0.3 to 3 µM, respectively.

On to `Cn1ncc2ccc(-c3[nH]c(-c4ccccc4)nc3-c3n[nH]c(=O)n3C3CCCC3)cc21` [Example 21, 4-cyclopentyl-3-(5-(1-methyl-1H-indazol-6-yl)-2-phenyl-1H-imidazol-4-yl)-1H-1,2,4-triazol-5(4H)-one], for which the IC50 in experiment [1] was 3 to 30 µM. Besides, the “Alpha Screen BRD4(2)” value in experiment [2] is given as “Not Active”.

As for `Cn1nc(-c2nc(-c3ccccc3)[nH]c2-c2ccc3cnn(C)c3c2)n(C2CC2)c1=O` [Example 27, 4-cyclopropyl-1-methyl-3-(5-(1-methyl-1H-indazol-6-yl)-2-phenyl-1H-imidazol-4-yl)-1H-1,2,4-triazol-5(4H)-one hydrochloride], the IC50 in experiment [1] fell in the range of 3 to 30 µM. Also, in experiment [2], the “Alpha Screen BRD4(2)” value is reported as “Not Active”.

Take `Cn1ncc2ccc(-c3[nH]c(-c4ccccc4)nc3-c3n[nH]c(=O)n3C3CCC3)cc21` [Example 19, 4-cyclobutyl-3-(5-(1-methyl-1H-indazol-6-yl)-2-phenyl-1H-imidazol-4-yl)-1H-1,2,4-triazol-5(4H)-one]: the IC50 in experiment [1] was 0.3 to 3 µM; in the experiment on cMYC, 3 to 30 µM; in experiment [2], 3 to 30 µM.

As to `CNC(=O)c1cccc(-c2[nH]c(-c3ccccc3)nc2-c2n[nH]c(=O)n2C2CC2)c1` [Example 3, 3-(4-(4-cyclopropyl-5-oxo-4,5-dihydro-1H-1,2,4-triazol-3-yl)-2-phenyl-1H-imidazol-5-yl)-N-methyl benzamide hydrochloride], the IC50 in experiment [1] and in experiment [2] was 3 to 30 µM throughout.
